In article PMC3028607:

Experiment: SmI2-mediated 8-endo-trig ketyl-alkene radical cyclisation (C-C bond between ketone carbon and distal styrene carbon); SmI2 2.2 equiv, HMPA 18 equiv, t-BuOH 2 equiv; substrate added over 2 h, then 16 h
Settings: THF, 15.0 mM, 22.0 °C

For `COC(=O)[C@@H]1Cc2ccccc2CC(C)C2(O)CCCC[C@@H]12` (stereo partly shown), the ring closure, isolated yield (from C/C=C/c1ccccc1C[C@@H](C(=O)OC)[C@@H]1CCCCC1=O, 8-membered ring) was 11%.
Work on `COC(=O)C1Cc2ccccc2C(C)CC(C)(O)C1` (stereo not shown) [4 (to 9 40% + 10 38%)] yielded a ring closure, isolated yield (from C=C(C)c1ccccc1CC(CC(C)=O)C(=O)OC, 8-membered ring) of 78%.
For `COC(=O)[C@@H]1Cc2ccccc2CCC2(O)CCCCC[C@@H]12` (stereo partly shown) [5a (to 6; 23% SM recovered)], the ring closure, isolated yield (from C=Cc1ccccc1C[C@@H](C(=O)OC)[C@@H]1CCCCCC1=O, 8-membered ring) was 42%.
Work on `COC(=O)[C@@H]1Cc2ccccc2CCC2(O)CCCCC[C@H]12` (stereo partly shown) [5b (no product; 62% SM recovered)] yielded a ring closure, isolated yield (from C=Cc1ccccc1C[C@@H](C(=O)OC)[C@H]1CCCCCC1=O, 8-membered ring) of 0%.
Molecule `COC(=O)[C@@H]1Cc2ccccc2C(C)CC2(O)CCCC[C@@H]12` (stereo partly shown) [7a (to 8)] has a ring closure, isolated yield (from C=C(C)c1ccccc1C[C@@H](C(=O)OC)[C@@H]1CCCCC1=O, 8-membered ring) of 63%.
Work on `COC(=O)C1Cc2ccccc2C(C)CC(O)(C(C)C)C1` (stereo not shown) [11 (to 12 54% + 13 28%)] yielded a ring closure, isolated yield (from C=C(C)c1ccccc1CC(CC(=O)C(C)C)C(=O)OC, 8-membered ring) of 82%.
Work on `COC(=O)C1Cc2ccccc2C(C)CC(O)(C(C)C)C1(C)C` (stereo not shown) [14 (only fragmentation 15, 58%)] yielded a ring closure, isolated yield (from C=C(C)c1ccccc1CC(C(=O)OC)C(C)(C)C(=O)C(C)C, 8-membered ring) of 0%.
For `COC(=O)C1Cc2ccccc2C(c2ccccc2)CC(O)(C(C)C)C1` (stereo not shown) [16 (to 17a 37% + 17b 22%)], the ring closure, isolated yield (from C=C(c1ccccc1)c1ccccc1CC(CC(=O)C(C)C)C(=O)OC, 8-membered ring) was 59%.
`COC(=O)C1Cc2ccccc2CC(C)C(C)(O)C1` (stereo not shown) [18 (to 19; 20% ketyl-aryl product 20)] showed a ring closure, isolated yield (from C/C=C/c1ccccc1CC(CC(C)=O)C(=O)OC, 8-membered ring) of 54%.
`CCC1(O)CC(C(=O)OC)Cc2ccccc2CC1C` (stereo not shown) [21 (to 22; 6% fragmentation 23)] showed a ring closure, isolated yield (from C/C=C/c1ccccc1CC(CC(=O)CC)C(=O)OC, 8-membered ring) of 56%.
Molecule `COC(=O)C1Cc2ccccc2CC(C)C(O)(C(C)C)C1` (stereo not shown) [24 (to 25)] has a ring closure, isolated yield (from C/C=C/c1ccccc1CC(CC(=O)C(C)C)C(=O)OC, 8-membered ring) of 63%.
`COC(=O)[C@@H]1Cc2ccccc2CC(C)C2(O)CCCC[C@H]12` (stereo partly shown) [26b (to lactone 29; 27% fragmentation 23; 40% SM)] showed a ring closure, isolated yield (from C/C=C/c1ccccc1C[C@@H](C(=O)OC)[C@H]1CCCCC1=O, 8-membered ring) of 9%.
Work on `COC(=O)C1Cc2ccccc2CC(C)C(O)(C(C)C)C1` (stereo not shown) [30 (to 31; 31% fragmentation 32; 32% SM)] yielded a ring closure, isolated yield (from C/C=C\c1ccccc1CC(CC(=O)C(C)C)C(=O)OC, 8-membered ring) of 8%.
`COC(=O)C1Cc2ccccc2CC(C2CC2)C(O)(C(C)C)C1` (stereo not shown) [33 (to 34; 47% fragmentation 35)] showed a ring closure, isolated yield (from COC(=O)C(CC(=O)C(C)C)Cc1ccccc1/C=C/C1CC1, 8-membered ring) of 24%.
`COC(=O)C1Cc2ccccc2CC(c2ccccc2)C(O)(C(C)C)C1` (stereo not shown) [36 (to 37; 20% SM)] gave a ring closure, isolated yield (from COC(=O)C(CC(=O)C(C)C)Cc1ccccc1/C=C/c1ccccc1, 8-membered ring) of 47%.
With `COC(=O)[C@@H]1Cc2ccccc2CC(c2ccccc2)C2(O)CCCC[C@@H]12` (stereo partly drawn) [38a (no 8-ring; 7-exo product 39, 44%)] the ring closure, isolated yield (from COC(=O)[C@H](Cc1ccccc1/C=C/c1ccccc1)[C@@H]1CCCCC1=O, 8-membered ring) was 0%.
Work on `COC(=O)[C@@H]1Cc2ccccc2CC(c2ccccc2)C2(O)CCCC[C@H]12` (stereo partly drawn) [38b (no 8-ring; 7-exo lactone 40, 63%)] yielded a ring closure, isolated yield (from COC(=O)[C@H](Cc1ccccc1/C=C/c1ccccc1)[C@H]1CCCCC1=O, 8-membered ring) of 0%.
In the case of `COC(=O)C1Cc2ccccc2CC(C)(C)C(C)(O)C1` (stereo not shown) [41 (no 8-ring; ketyl-aryl 42 14% + 43 7%)], the ring closure, isolated yield (from COC(=O)C(CC(C)=O)Cc1ccccc1C=C(C)C, 8-membered ring) was 0%.
`COC(=O)C1Cc2ccccc2CC(C)C(O)(C(C)C)C1(C)C` (stereo not shown) [(E)-1-propenyl analogue of 14 (only fragmentation)] showed a ring closure, isolated yield (from C/C=C/c1ccccc1CC(C(=O)OC)C(C)(C)C(=O)C(C)C, 8-membered ring) of 0%.
